From patent US20230113037A1 (Bayer Aktiengesellschaft, priority 2019, published 2023) come the findings set out here.

Read-outs that look alike come from different tables or passages of the source.

The target of experiment [1] is T1, AHR (Mus musculus, UniProt P30561).
T1 sequence (P30561 1-848 P471L/N533S/M589L): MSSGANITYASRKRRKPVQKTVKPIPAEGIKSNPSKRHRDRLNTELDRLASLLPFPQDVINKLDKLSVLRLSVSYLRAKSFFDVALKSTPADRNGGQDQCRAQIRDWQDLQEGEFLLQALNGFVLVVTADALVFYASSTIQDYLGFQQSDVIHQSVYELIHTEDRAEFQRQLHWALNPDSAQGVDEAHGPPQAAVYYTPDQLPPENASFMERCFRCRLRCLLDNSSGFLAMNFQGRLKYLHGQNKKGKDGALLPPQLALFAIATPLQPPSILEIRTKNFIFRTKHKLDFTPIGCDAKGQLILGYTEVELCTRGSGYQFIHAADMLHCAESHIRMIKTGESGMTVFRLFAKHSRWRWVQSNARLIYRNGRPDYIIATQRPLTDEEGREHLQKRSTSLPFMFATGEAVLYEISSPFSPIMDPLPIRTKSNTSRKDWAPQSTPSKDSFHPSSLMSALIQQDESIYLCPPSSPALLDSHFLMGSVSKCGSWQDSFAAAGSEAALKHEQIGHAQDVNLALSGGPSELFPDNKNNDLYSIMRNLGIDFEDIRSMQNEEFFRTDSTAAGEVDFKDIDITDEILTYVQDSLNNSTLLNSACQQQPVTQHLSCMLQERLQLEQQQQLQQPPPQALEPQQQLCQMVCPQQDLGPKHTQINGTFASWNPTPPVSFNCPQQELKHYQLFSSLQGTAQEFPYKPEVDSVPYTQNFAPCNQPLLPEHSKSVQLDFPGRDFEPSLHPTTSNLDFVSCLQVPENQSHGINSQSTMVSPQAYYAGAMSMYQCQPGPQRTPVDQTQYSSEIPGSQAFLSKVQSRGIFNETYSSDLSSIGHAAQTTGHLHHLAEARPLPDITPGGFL
Description: In vitro assay 3: antagonism in mouse cell line (AHR transactivation, firefly luciferase reporter, kynurenic acid prestimulated). It is filed as cell-based. The essentials: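 Luminescence from an AHR-dependent DRE-luciferase reporter, stably integrated in mouse cells, quantifies blockade of kynurenic acid-driven activation. Unstimulated cells mark maximal inhibition; normalization uses both control types, and multiply tested compounds carry mean or median values.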
(In general: A reporter such as luciferase makes a cellular process visible.)

Experiment [2] deals with T2, AHR (Homo sapiens, UniProt P35869).
T2 construct: U87 MG glioblastoma cells (ATCC #HTB-14) endogenously expressing AHR; endogenous in cells; host or cells: U87 MG glioblastoma cells (ATCC #HTB-14)
T2 sequence (P35869 11-848): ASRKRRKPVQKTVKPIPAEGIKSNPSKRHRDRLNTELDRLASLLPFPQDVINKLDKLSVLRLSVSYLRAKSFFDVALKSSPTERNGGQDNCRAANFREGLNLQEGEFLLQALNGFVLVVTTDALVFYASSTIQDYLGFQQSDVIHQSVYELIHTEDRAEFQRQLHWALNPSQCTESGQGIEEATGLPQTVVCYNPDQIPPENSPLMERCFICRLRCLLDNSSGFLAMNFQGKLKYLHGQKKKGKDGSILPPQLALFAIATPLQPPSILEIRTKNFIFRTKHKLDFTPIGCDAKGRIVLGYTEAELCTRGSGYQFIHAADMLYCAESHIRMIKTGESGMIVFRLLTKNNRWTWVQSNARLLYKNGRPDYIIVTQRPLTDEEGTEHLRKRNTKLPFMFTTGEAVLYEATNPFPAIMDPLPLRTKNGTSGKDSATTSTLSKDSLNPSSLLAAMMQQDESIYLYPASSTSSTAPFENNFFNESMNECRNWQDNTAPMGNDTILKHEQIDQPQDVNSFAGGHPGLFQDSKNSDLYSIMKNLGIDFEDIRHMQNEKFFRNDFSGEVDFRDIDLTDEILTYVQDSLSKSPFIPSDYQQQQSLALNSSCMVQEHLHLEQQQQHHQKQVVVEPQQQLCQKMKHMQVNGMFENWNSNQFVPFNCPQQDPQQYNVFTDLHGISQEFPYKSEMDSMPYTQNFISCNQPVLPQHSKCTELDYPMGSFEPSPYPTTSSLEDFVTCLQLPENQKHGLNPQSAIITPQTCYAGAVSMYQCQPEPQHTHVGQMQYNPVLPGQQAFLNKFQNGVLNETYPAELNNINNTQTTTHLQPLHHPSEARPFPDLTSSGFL
Description: In vitro assay 1: antagonism in human cell line (AHR transactivation, firefly luciferase reporter, kynurenic acid prestimulated). It is filed as cell-based. The note with it: AHR Antagonism Human IC50 [M]. The essentials:
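Antagonism is measured against kynurenic acid prestimulation in U87 MG glioblastoma cells carrying stable DRE-luciferase and Renilla reporters. Positive inhibition control: 150 μM kynurenic acid with 5 μM staurosporine. Values are normalized to controls; repeats are averaged or given as medians.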

Setting [3] is: mouse Hepa 1c1c7 cells, 200 μM kynurenic acid, 20 hours, read-out: AHR Antagonism Mouse IC50.
The mark [4] stands for this setting: Hepa 1c1c7 cells, 200 μM kynurenic acid, 20 hours, firefly luciferase reporter, read-out: AHR Antagonism Mouse IC50.

For orientation: IC50 means the concentration that inhibits the measured activity by half.

For `CN1CCC(n2cc(-c3nc4c5ccccc5nc(N[C@@H]5CCCCNC5=O)n4n3)cn2)CC1` [Example 596, (3R)-3-({2-[1-(1-methylpiperidin-4-yl)-1H-pyrazol-4-yl][1,2,4]triazolo[1,5-c]quinazolin-5-yl}amino)azepan-2-one], the concentration for half-maximal inhibition (IC50) was determined as 3140 nM in experiment [1] (setting [3]) and 4.08e-06 M in experiment [2].
Turning to `N#Cc1cccc(-c2nc3c4ccccc4nc(N[C@@H]4CCCNC4=O)n3n2)c1` [Example 384, 3-(5-{[(3R)-2-oxopiperidin-3-yl]amino}[1,2,4]triazolo[1,5-c]quinazolin-2-yl)benzonitrile], the values for the IC50 in experiment [1] (setting [3]) and in experiment [2] were 72.2 nM and 2.73e-07 M, respectively.
With `O=C1NCCCC[C@H]1Nc1nc2c(C(F)(F)F)cccc2c2nc(-c3cc[nH]n3)nn12` [Example 737, (3R)-3-{[2-(1H-pyrazol-3-yl)-7-(trifluoromethyl)[1,2,4]triazolo[1,5-c]quinazolin-5-yl]amino}azepan-2-one], the IC50 worked out at 15.1 nM in experiment [1] (setting [3]) and 7.64e-09 M in experiment [2].
The corresponding values for `Cc1[nH]ncc1-c1nc2c3ccccc3nc(N[C@@H]3CCCCNC3=O)n2n1` [Example 609, (3R)-3-{[2-(5-methyl-1H-pyrazol-4-yl)[1,2,4]triazolo[1,5-c]quinazolin-5-yl]amino}azepan-2-one] are 324 nM and 1.57e-07 M.
The corresponding values for `O=C1NCCCC[C@H]1Nc1nc2c(Br)cccc2c2nc(-c3ccc(Cl)cc3OC(F)(F)F)nn12` [Example 571, (3R)-3-({7-bromo-2-[4-chloro-2-(trifluoromethoxy)phenyl][1,2,4]triazolo[1,5-c]quinazolin-5-yl}amino)azepan-2-one] are 10.1 nM and above 2e-05 M.
On to `COc1cccc(-c2nc3c4ccccc4nc(N[C@H](C)C(=O)NCCO)n3n2)c1` [Example 111, N-(2-hydroxyethyl)-N^2-[2-(3-methoxyphenyl)[1,2,4]triazolo[1,5-c]quinazolin-5-yl]-D-alaninamide], for which the half-maximal inhibitory concentration (IC50) was found to be 15.8 nM in experiment [1] (setting [3]) and 1.42e-08 M in experiment [2].
Consider `COc1cccc2c1nc(N[C@@H]1CCCCNC1=O)n1nc(-c3cnn(C4CC4)c3)nc21` [Example 757, (3R)-3-{[2-(1-cyclopropyl-1H-pyrazol-4-yl)-7-methoxy[1,2,4]triazolo[1,5-c]quinazolin-5-yl]amino}azepan-2-one], for which the values for the IC50 in experiment [1] (setting [3]) and in experiment [2] were 109 nM and 5.4e-08 M, respectively.
As for `N#Cc1cccc2c1nc(N[C@@H]1CNCCNC1=O)n1nc(-c3cnn(C4CC4)c3)nc21` [Example 932, 2-(1-cyclopropyl-1H-pyrazol-4-yl)-5-{[(6R)-5-oxo-1,4-diazepan-6-yl]amino}[1,2,4]triazolo[1,5-c]quinazoline-7-carbonitrile], the IC50 in experiment [1] (setting [4]) is 173 nM; in experiment [2] (firefly luciferase reporter), 1.48e-07 M.
Consider `COc1cccc(-c2nc3c4cc(F)ccc4nc(NC4CCCNC4=O)n3n2)c1` (single isomer, unassigned) [Example 189, 3-{[9-fluoro-2-(3-methoxyphenyl)[1,2,4]triazolo[1,5-c]quinazolin-5-yl]amino}piperidin-2-one], for which the IC50 in experiment [1] (setting [3]) amounted to 114 nM; in experiment [2] it was 2.61e-07 M.
For the molecule `COc1cccc(-c2nc3c4ccccc4nc(N[C@H](CC(C)C)C(=O)O)n3n2)c1` [Example 93, N-[2-(3-methoxyphenyl)[1,2,4]triazolo[1,5-c]quinazolin-5-yl]-D-leucine], the IC50 was 427 nM in experiment [1] (setting [3]) and 1.52e-07 M in experiment [2].
`CC[C@@H](Nc1nc2ccccc2c2nc(-c3ccccc3OC(F)(F)F)nn12)C(N)=O` [Example 469, (2R)-2-({2-[2-(trifluoromethoxy)phenyl][1,2,4]triazolo[1,5-c]quinazolin-5-yl}amino)butanamide]: the IC50 in experiment [1] (setting [3]) was found to be 1.2 nM; in experiment [2] it was 1.64e-08 M.
With `COc1ccc(-c2nc3c4cccc(OCC(C)(C)O)c4nc(N[C@@H]4CCCCNC4=O)n3n2)cc1` [Example 997, (3R)-3-{[7-(2-hydroxy-2-methylpropoxy)-2-(4-methoxyphenyl)[1,2,4]triazolo[1,5-c]quinazolin-5-yl]amino}azepan-2-one], the IC50 was 138 nM in experiment [1] (setting [4]) and 8.11e-08 M in experiment [2] (firefly luciferase reporter).
As for `Cn1cc(-c2nc3c4cccc(C(F)(F)F)c4nc(N[C@@H]4CCCCNC4=O)n3n2)cn1` [Example 583, (3R)-3-{[2-(1-methyl-1H-pyrazol-4-yl)-7-(trifluoromethyl)[1,2,4]triazolo[1,5-c]quinazolin-5-yl]amino}azepan-2-one], the 50% inhibitory concentration (IC50) in experiment [1] (setting [3]) worked out at 3.11 nM; in experiment [2], 9.48e-10 M.
With `CC[C@H](Nc1nc2ccccc2c2nc(-c3cn(C)nn3)nn12)C(N)=O` [Example 690, (2S)-2-{[2-(1-methyl-1H-1,2,3-triazol-4-yl)[1,2,4]triazolo[1,5-c]quinazolin-5-yl]amino}butanamide], the IC50 in experiment [1] (read-out: AHR Antagonism Mouse IC50, mouse Hepa 1c1c7 cells, 200 μM kynurenic acid, 20 hours) is above 20000 nM; in experiment [2], above 2e-05 M.
As for `O=C1NCCNC[C@H]1Nc1nc2ccccc2c2nc(-c3cccc(Cl)c3Cl)nn12` [Example 263, (6R)-6-{[2-(2,3-dichlorophenyl)[1,2,4]triazolo[1,5-c]quinazolin-5-yl]amino}-1,4-diazepan-5-one], the 50% inhibitory concentration (IC50) in experiment [1] (setting [3]) turned out to be 8.93 nM; in experiment [2] it was 3.86e-07 M.
As to `CCCNC(=O)[C@@H](C)Nc1nc2ccccc2c2nc(-c3ccncc3F)nn12` [Example 487, N^2-[2-(3-fluoropyridin-4-yl)[1,2,4]triazolo[1,5-c]quinazolin-5-yl]-N-propyl-D-alaninamide], the half-inhibitory concentration (IC50) in experiment [1] (setting [3]) was determined as 200 nM; in experiment [2], 3.26e-07 M.
For `Cn1cc(-c2nc3c4cccc(C(F)(F)F)c4nc(N[C@@H]4CCCNC4=O)n3n2)cn1` [Example 585, (3R)-3-{[2-(1-methyl-1H-pyrazol-4-yl)-7-(trifluoromethyl)[1,2,4]triazolo[1,5-c]quinazolin-5-yl]amino}piperidin-2-one], in that order: 830 nM and 6.91e-08 M.
For `O=C1NCC[C@H]1Nc1nc2c(Br)cccc2c2nc(-c3ccccc3OC(F)(F)F)nn12` [Example 219, (3R)-3-({7-bromo-2-[2-(trifluoromethoxy)phenyl][1,2,4]triazolo[1,5-c]quinazolin-5-yl}amino)pyrrolidin-2-one], in that order: 7.14 nM and 8.15e-08 M.
In the case of `COc1ccc(-c2nc3c4cccc(Br)c4nc(N[C@@H](C(=O)N4CCN(C)CC4)C(C)C)n3n2)cc1` [Example 922, (2R)-2-{[7-bromo-2-(4-methoxyphenyl)[1,2,4]triazolo[1,5-c]quinazolin-5-yl]amino}-3-methyl-1-(4-methylpiperazin-1-yl)butan-1-one], the IC50 was determined as 2.03 nM in experiment [1] (setting [4]) and 2.47e-09 M in experiment [2] (firefly luciferase reporter).
On to `COc1cccc(-c2nc3c4c(C)cccc4nc(NC4CCCNC4=O)n3n2)c1` (stereo not shown) [Example 180, 3-{[2-(3-methoxyphenyl)-10-methyl[1,2,4]triazolo[1,5-c]quinazolin-5-yl]amino}piperidin-2-one], for which the half-maximal inhibitory concentration (IC50) in experiment [1] (setting [3]) was determined as 253 nM; in experiment [2], 1.27e-07 M.
